≈ marks a conversion by molar mass, not a printed value.
Test system: M. tuberculosis H37Rv growth inhibition
Assay: Mycobacterium tuberculosis H37Rv growth inhibition, putative kinase inhibitor library, confirmatory dose response (AID 2842);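 note: bacteria incubated one week before Alamar blue readout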

Compound | IC90 [µg/mL]
O=C(Nc1nnc(-c2ccc(Br)cc2)o1)c1ccc(Cl)s1 | 1.87 (≈ 4.86 µM)
Cc1ccc(NCCn2c(C)cn3c4c(=O)[nH]c(=O)n(C)c4nc23)cc1 | 15.1 (≈ 42.9 µM)
COc1cccc2sc(NNC(=O)c3cc(=O)c4ccccc4o3)nc12 | 25.5 (≈ 69.5 µM)
COc1ccccc1-c1nnc(NC(=O)CCc2ccccc2)o1 | 6.99 (≈ 21.6 µM)
O=C(Nc1nnc(-c2ccc3c(c2)CCCC3)o1)c1ccccc1Br | < 0.2
Cc1nnc(SCC(=O)Nc2ccc3c(c2)OCCO3)n(N)c1=O | 23.1 (≈ 66.2 µM)
O=C(Cc1cccc2ccccc12)Nc1nc(-c2ccc(Br)s2)cs1 | 15.7 (≈ 36.5 µM)
CCOc1ccc2nc(SC3CC(=O)N(c4ccc(N5CCCCC5)cc4)C3=O)sc2c1 (centres undefined) | 24.8 (≈ 53 µM)
COc1ccccc1Nc1nc(NCc2ccco2)c2ccccc2n1 | 5.62 (≈ 16.2 µM)
O=C(Nc1nnc(-c2ccc3c(c2)CCCC3)o1)c1ccccc1Cl | 1.11 (≈ 3.14 µM)
O=C(Nc1nnc(-c2ccncc2)o1)c1ccc(F)cc1 | 3.23 (≈ 11.4 µM)
c1ccc2sc(Nc3nc4cc5c(cc4s3)OCO5)nc2c1 | 18.6 (≈ 56.9 µM)
O=C(Nc1nnc(-c2ccccc2)o1)c1ccco1 | 2.78 (≈ 10.9 µM)
Cc1ccc2sc(NNC(=O)c3cc4ccccc4oc3=O)nc2c1C | 4.21 (≈ 11.5 µM)
Cc1ccc(C)c(-c2nnc(NC(=O)c3ccc(Cl)cc3Cl)o2)c1 | 2.21 (≈ 6.1 µM)
O=C(Cc1cccc2ccccc12)Nc1nnc(-c2cc(Cl)ccc2Cl)o1 | 94.5 (≈ 237 µM)
COc1ccc(Cl)cc1NC(=O)NC1CC(=O)N(c2ccc(C)c(C)c2)C1 (centres undefined) | 28.5 (≈ 73.5 µM)
Cc1cc(C)c2nc(NNC(=O)c3ccccc3F)sc2c1 | 3.08 (≈ 9.77 µM)
O=C(Nc1nnc(-c2ccc(F)cc2)o1)c1cccc(Br)c1 | 93.6 (≈ 259 µM)
CCOc1cc(-c2nnc(NC(=O)c3ccccc3Cl)o2)cc(OCC)c1OCC | 1.61 (≈ 3.73 µM)
COc1ccc(CNc2nccn(-c3cc(C)c(Cl)cc3OC)c2=O)cc1 | 18.1 (≈ 46.8 µM)
Cc1ccc(-c2nnc(NC(=O)c3ccccc3F)o2)c(C)c1 | 1.31 (≈ 4.21 µM)
O=C1N/C(=N\N=C\c2ccccc2O)SC1Cc1cc(Cl)ccc1Cl (centres undefined) | 4.52 (≈ 11.5 µM)

Compound | IC90 [µg/mL]
O=C(Nc1nnc(-c2ccc(F)cc2)o1)c1sc2ccccc2c1Cl | 9.54 (≈ 25.5 µM)
CC(C)COc1ccc(S(=O)(=O)Nc2ccc3c(c2)C(=O)Nc2ccccc2O3)cc1 | 6.99 (≈ 15.9 µM)
Cc1n[nH]c(=O)nc1N/N=C/c1cccc(OCc2ccccc2Cl)c1 | 35.9 (≈ 97.2 µM)
Cc1cccc(N2CCN(C(=O)CCCCCn3c(=O)[nH]c4ccsc4c3=O)CC2)c1C | 20.9 (≈ 46 µM)
CCOc1ccc2nc(Nc3nc4ccc(NC(C)=O)cc4s3)sc2c1 | 7.84 (≈ 20.4 µM)
O=C(CCc1ccccc1)Nc1nnc(-c2cccs2)o1 | 42.8 (≈ 143 µM)
CCc1ccc(OCC(=O)Nc2ccc(OC)cc2)cc1 | 12.7 (≈ 44.3 µM)
CCOC(=O)Cn1c(=NC(=O)c2ccc([N+](=O)[O-])s2)sc2cc(S(C)(=O)=O)ccc21 | 21.8 (≈ 46.5 µM)
CC1CCCCN1S(=O)(=O)c1ccc(C(=O)Nc2nnc(-c3ccc(Br)cc3)o2)cc1 (centres undefined) | 17.3 (≈ 34.2 µM)
CCOc1ccc(C(=O)N2CC(=O)Nc3ccc(Br)cc3C2c2ccccc2)cc1 (centres undefined) | 25.3 (≈ 54.3 µM)
Cc1ccc(-c2nnc(NC(=O)c3ccccc3[N+](=O)[O-])o2)c(C)c1 | 15.7 (≈ 46.5 µM)
Cc1c(Cc2ccc(Cl)cc2)c(NCCCN(C)C)n2c(nc3ccccc32)c1C#N | 2.21 (≈ 5.12 µM)
Cc1c(CCC#N)c(=O)n2c([nH]c3ccccc32)c1C#N | 2.29 (≈ 8.29 µM)
COc1ccc(-c2nsc(SCC(=O)NCc3ccco3)n2)cc1 | < 0.2
CC1CCN(S(=O)(=O)c2ccc(C(=O)NNc3nc4c(Cl)cccc4s3)cc2)CC1 | 24.7 (≈ 53.1 µM)
Cc1ccc(-c2nnc3c4cc5c(cc4n(Cc4ccccc4F)cc2-3)OCCO5)cc1C | 6.25 (≈ 14.2 µM)
CC1CCc2c(sc(Nc3nc4ccc(F)cc4s3)c2C(N)=O)C1 (centres undefined) | 35.8 (≈ 99 µM)
Cc1cc2cc(CNC(=O)C(=O)c3c[nH]c4ccccc34)ccc2[nH]1 | 8.44 (≈ 25.5 µM)
O=C(N=Nc1c(O)[nH]c2ccccc12)c1cc(-c2cccc(OCc3ccccc3)c2)n[nH]1 | 20.2 (≈ 46.2 µM)
Cc1ccc(-c2nnc(NC(=O)c3ccc(Br)s3)o2)c(C)c1 | 2.17 (≈ 5.74 µM)
Cc1cccc(C(=O)Nc2nnc(-c3cc(Cl)ccc3Cl)o2)c1 | 32 (≈ 91.9 µM)
CC(C)c1ccc2nc(Nc3nc4ccc(S(C)(=O)=O)cc4s3)sc2c1 | 12 (≈ 29.8 µM)
CCOC(=O)N1CCc2c(sc(NC(=O)c3ccccc3)c2C(N)=O)C1 | 1.84 (≈ 4.93 µM)

Compound | IC90 [µg/mL]
Cc1sc2nc(SCC#N)[nH]c(=O)c2c1C | 17.3 (≈ 69 µM)
O=C(c1cccs1)N(CCCn1ccnc1)c1nc2ccc(F)cc2s1 | 3.01 (≈ 7.79 µM)
COC(=O)c1c(NC(=O)c2ccc(C)c(C)c2)sc2c1CCN(C(C)=O)C2 | 48 (≈ 124 µM)
COC(=O)c1cc(C(=O)OC)cc(-n2c(C)cc(C(=O)CCl)c2C)c1 | 6.39 (≈ 17.6 µM)
Cc1cc(C)c2sc(NNC(=O)c3nc4ccccc4s3)nc2c1 | 15.5 (≈ 43.7 µM)
COc1ccc(Nc2nc(Nc3ccc(C)c(C)c3)nc3nccnc23)cc1 | 3.93 (≈ 10.6 µM)
COc1ccc(-c2nnc3c4cc(OC)c(OC)cc4n(Cc4ccc(C)cc4)cc2-3)cc1 | 95.4 (≈ 217 µM)
N#Cc1ccccc1NC(=O)C(=O)NCCSc1ncc(-c2ccccc2)[nH]1 | 4.48 (≈ 11.4 µM)
Cc1cccn2c(=O)c3cc(C(=O)NC(C)c4ccccc4)c(=N)n(C4CCCCC4)c3nc12 (centres undefined) | 3.05 (≈ 6.7 µM)
O=C(NNc1nc2c(F)cc(F)cc2s1)c1coc2ccccc2c1=O | 3.33 (≈ 8.92 µM)
COc1ccccc1N1CCN(c2nc(Nc3ccc(F)cc3)c3nccnc3n2)CC1 | 27.6 (≈ 63.9 µM)
N#C/C(=C\Nc1ccccc1)c1nc2ccccc2[nH]1 | 3.25 (≈ 12.5 µM)
O=C(c1ccco1)N(CCCn1ccnc1)c1nc2c(F)cccc2s1 | 3.11 (≈ 8.4 µM)
CN(C)S(=O)(=O)c1ccc(C(=O)Nc2nnc(-c3cc(Cl)ccc3Cl)o2)cc1 | 3.89 (≈ 8.81 µM)
COc1ccccc1-c1nnc(NC(=O)Cc2ccc(SC)cc2)o1 | 52.6 (≈ 148 µM)
O=C(Nc1nnc(-c2ccc3c(c2)CCCC3)o1)c1sc2ccccc2c1Cl | 34.5 (≈ 84.2 µM)
CCN(c1ccccc1)S(=O)(=O)c1ccc(C(=O)Nc2ccc3ncsc3c2)cc1 | 14.7 (≈ 33.5 µM)
COc1cccc(C(=O)NNc2nc3c(C)cccc3s2)c1 | 11.6 (≈ 37.1 µM)
COc1ccc2c(c1)c1nnc(-c3ccc(C)cc3)c-1cn2Cc1ccccc1OC | 4.23 (≈ 10.3 µM)
COc1ccccc1-c1cnn2c(Nc3cccc(Cl)c3)cc(C)nc12 | 1.72 (≈ 4.71 µM)
CCCCC(=O)Nc1nc(-c2ccccc2)c(C(C)=O)s1 | 13.7 (≈ 45.4 µM)
COc1ccc(-c2nnc3c4cc5c(cc4n(Cc4ccc(C)cc4)cc2-3)OCCO5)cc1 | 5.09 (≈ 11.6 µM)
Cc1nc2cc(NC(=O)Nc3ccc(Cl)cc3)ccc2n1-c1ccccc1 | 6.97 (≈ 18.5 µM)

Compound | IC90 [µg/mL]
Cc1ccc(C(=O)Nc2nnc(-c3ccncc3)o2)cc1 | 13.4 (≈ 47.7 µM)
Cc1cc(C)c2nc(C(F)(F)F)nc(NC(C)CCc3ccccc3)c2c1 (centres undefined) | 7.61 (≈ 20.4 µM)
C=CCN(CC=C)S(=O)(=O)c1ccc(C(=O)Nc2nnc(-c3cc(Cl)ccc3Cl)o2)cc1 | 12.8 (≈ 25.9 µM)
Oc1ccc(Nc2nc(NCc3ccccc3)c3ccccc3n2)cc1 | 2.59 (≈ 7.56 µM)
COc1ccc(CCNc2cnnc(NCCc3ccc(OC)cc3)n2)cc1 | 24.5 (≈ 64.6 µM)
OCCOCCNc1nc(Nc2cccc(F)c2)nc2c1cnn2-c1ccccc1 | 4.91 (≈ 12 µM)
CC1Cc2cc(-c3nn(-c4ccccc4)cc3/C=C3\SC(=S)NC3=O)ccc2O1 (centres undefined) | 1.79 (≈ 4.27 µM)
Cc1ccccc1C(=O)Nc1nnc(-c2ccccn2)o1 | 15.2 (≈ 54.2 µM)
NNC(=O)c1ccc(-c2ccccc2Cl)o1 | 3.96 (≈ 16.7 µM)
O=C(Nc1nnc(-c2ccccc2Cl)o1)c1nc2ccccc2s1 | 1.75 (≈ 4.9 µM)
COc1cccc(-c2nnc(SCC(=O)Nc3cc(C)on3)o2)c1 | 3.26 (≈ 9.41 µM)
COc1cc(OC)cc(C(=O)N(CCCn2ccnc2)c2nc3c(C)cc(C)cc3s2)c1 | 10.1 (≈ 22.3 µM)
COc1cccc(-c2nnc(NC(=O)c3ccccc3Cl)o2)c1 | 2.69 (≈ 8.16 µM)
O=C(c1ccco1)N(CCCn1ccnc1)c1nc2ccccc2s1 | 4.28 (≈ 12.1 µM)
CC1CCCN(Cc2c(O)ccc3c(=O)c(-c4nc5ccccc5s4)c(N)oc23)C1 (centres undefined) | 2.89 (≈ 6.86 µM)
COc1ccc(OC)c(-c2csc(NC(=O)c3ccc([N+](=O)[O-])o3)n2)c1 | 27.1 (≈ 72.2 µM)
Cc1ccc(-c2nnc(NC(=O)c3ccc(Br)cc3)o2)c(C)c1 | 52.2 (≈ 140 µM)
COc1cc(C=NNC(=O)Nc2cccc(Cl)c2)ccc1O | 8.5 (≈ 26.6 µM)
O=C1CN(C(=O)c2cc(Br)ccc2Cl)C(c2ccccc2)c2cc(F)ccc2N1 (centres undefined) | 26.1 (≈ 55 µM)
O=C(CCSc1ccccc1)Nc1nnc(-c2ccc3c(c2)OCCO3)o1 | 16.8 (≈ 43.9 µM)
Cc1ccc(-n2nnc3c(SCC(=O)N4CCOCC4)ncnc32)cc1 | 12.3 (≈ 33.3 µM)
COc1ccc(-c2nnc(NC(=O)c3cc4ccccc4cc3OC)o2)cc1 | 26.3 (≈ 70.2 µM)
N#CC1=C(N)OC2=C(C(=O)CC(c3ccccc3)C2)C1C1CCCCC1 (centres undefined) | 7.8 (≈ 22.4 µM)

Compound | IC90 [µg/mL]
COc1ccc(-c2nnc3c4cc(OC)ccc4n(Cc4ccccc4F)cc2-3)cc1 | 9.08 (≈ 22 µM)
Cc1cccc2nc(NC(=O)c3ccc(Oc4ccccc4)cc3)sc12 | 8.53 (≈ 23.7 µM)
COc1cccc2sc(Nc3nc4c(F)cccc4s3)nc12 | 14.5 (≈ 43.6 µM)
O=C(Nc1ncc(Cc2cccc(C(F)(F)F)c2)s1)c1cccs1 | 2.92 (≈ 7.93 µM)
CSc1ccccc1-c1nnc(NC(=O)c2cc(Cl)sc2Cl)o1 | 11.7 (≈ 30.2 µM)
Cc1ccc(-c2nnc(NC(=O)c3ccccc3)o2)c(C)c1 | 8.78 (≈ 29.9 µM)
O=C(CCc1ccccc1)Nc1nnc(-c2ccc3c(c2)CCCC3)o1 | 30 (≈ 86.2 µM)
CCOC(=O)N1CCN(c2ncnc3c2cnn3-c2ccc(C)c(C)c2)CC1 | 9.11 (≈ 23.9 µM)
O=C(Nc1nnc(-c2ccc(Cl)s2)o1)C1CC1 | 26.8 (≈ 99.3 µM)
CCOC(=O)c1cnc2ccc(OCC)cc2c1Nc1ccccc1C | 8.82 (≈ 25.2 µM)
Cc1ccc(C)c(-c2nnc(NC(=O)c3ccccc3C)o2)c1 | 2.48 (≈ 8.07 µM)
O=C(Nc1nnc(-c2ccc(F)cc2)o1)c1cccc(C(F)(F)F)c1 | 11.7 (≈ 33.4 µM)
CC1=C(C(=O)Nc2cccc(Cl)c2)C(c2ccc(Br)cc2)NC(=O)N1 (centres undefined) | 20.3 (≈ 48.1 µM)
COc1ccc(-c2noc(-c3cc4ccccc4oc3=Nc3ccc(Br)cc3)n2)cc1 | 13.3 (≈ 28.1 µM)
O=C(c1cccs1)N(CCCn1ccnc1)c1nc2ccccc2s1 | 6 (≈ 16.3 µM)
O=C(Nc1nnc(-c2cccs2)o1)c1ccco1 | 3.41 (≈ 13.1 µM)
CCCC(=O)Nc1nnc(-c2cc(C)ccc2C)o1 | 2.09 (≈ 8.06 µM)
O=C1CN(C(=O)c2cccc3ccccc23)C(c2ccc(F)cc2)c2cc(Br)ccc2N1 (centres undefined) | 10.2 (≈ 20.8 µM)
CCN1CCc2c(sc(NC(=O)c3sc4ccccc4c3Cl)c2C(N)=O)C1 | 10.6 (≈ 25.2 µM)
CCOC(=O)c1ccc(NC(=O)CSc2ccc(F)cc2)cc1 | 5.47 (≈ 16.4 µM)
Cn1c(=O)c2c(nc(SCC(=O)c3ccccc3)n2Cc2ccc(F)cc2)n(C)c1=O | 31.8 (≈ 72.4 µM)
Cc1cccc2sc(N(CCCn3ccnc3)C(=O)c3ccco3)nc12 | 0.83 (≈ 2.26 µM)
